Holding throughout (type): biochemical
The target of assay [1] is T1, human CSNK1A1 (Homo sapiens (Human), UniProt P48729). The experiment in a line: CSNK1A1 Assay 2 (ADP-Glo, 1 μM ATP). Conditions: substrate biotin-Ahx-KRRRAL-pS-VASLPGL, read-out: CSNK1A1 Assay 2 IC50 [mol/l] (median). In outline:
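Full-length human CSNK1A1 as an N-terminal GST fusion (baculovirus/insect cells) with biotinylated peptide substrate biotin-Ahx-KRRRAL-pS-VASLPGL and 1 μM ATP, in HEPES pH 7.5 buffer. Compounds were pre-incubated with enzyme (~0.0375 ng/μL) for 15 min at 22 °C. Generated ADP was read by ADP-Glo luminescence as the activity measure.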
(ADP-Glo turns the ADP formed in a reaction into a luminescent signal.)

In assay [2] the target is T1, human CSNK1A1. The assay is described as follows: CSNK1A1 High ATP Assay (ADP-Glo, 1 mM ATP). Conditions: read-out: CSNK1A1 high ATP assay IC50 [mol/l] (median). In outline:
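Kinase activity taken as ADP generated, quantified by ADP-Glo luminescence after 1 h ATP depletion and 1 h detection at 22 °C. Enzyme is GST–full-length human CSNK1A1 (insect cell-expressed), pre-bound to compound for 15 min, with phosphopeptide substrate and 1 mM ATP.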

For another assay, the target named is human CSNK1D (Homo sapiens (Human), UniProt P48730). The assay is described as follows: CSNK1D Assay (ADP-Glo, 1 μM ATP). Conditions: read-out: CSNK1D IC50 [mol/l] (median). The gist of the method: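 Activity is read as ADP produced, by ADP-Glo luminescence after 1 h steps at 22 °C. The reaction uses 1 μM ATP, a biotinylated peptide and insect-cell-expressed GST–CSNK1D (about 0.5 ng/μL) in pH 7.5 HEPES buffer, with 15 min compound–enzyme preincubation.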

The target in assay [3] is wild-type Epidermal Growth Factor Receptor (EGFR) (Homo sapiens (Human), UniProt P00533). The experiment in a line: WT-EGFR Kinase Assay (TR-FRET, 2 mM ATP). Conditions: EGFR Wildtyp- 2 mM ATP IC50 [mol/l] (median). Background: In TR-FRET formats the signal depends on donor and acceptor labels being close together.

These results are taken from patent publication US12227501B2, “3-amino-2-[2-(acylamino)pyridin-4-yl]-1,5,6,7-tetrahydro-4h-pyrrolo[3,2-c]pyridin-4-one as CSNK1 inhibitors” (Bayer Aktiengesellschaft, priority 2019, dated 2025).

Chain of human CSNK1D (P48730 whole entry): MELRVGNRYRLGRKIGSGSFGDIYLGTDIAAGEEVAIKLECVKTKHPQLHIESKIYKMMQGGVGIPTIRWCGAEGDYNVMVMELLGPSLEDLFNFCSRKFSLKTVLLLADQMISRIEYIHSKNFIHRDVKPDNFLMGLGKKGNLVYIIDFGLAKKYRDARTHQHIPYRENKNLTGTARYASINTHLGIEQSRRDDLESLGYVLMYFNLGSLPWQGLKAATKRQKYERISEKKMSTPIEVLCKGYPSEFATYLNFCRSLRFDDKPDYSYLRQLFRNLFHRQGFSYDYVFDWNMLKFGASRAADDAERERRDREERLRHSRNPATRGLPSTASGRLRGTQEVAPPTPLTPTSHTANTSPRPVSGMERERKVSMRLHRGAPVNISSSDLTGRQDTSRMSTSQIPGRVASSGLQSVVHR
T1 sequence (P48729 whole entry, the tested form may be a part): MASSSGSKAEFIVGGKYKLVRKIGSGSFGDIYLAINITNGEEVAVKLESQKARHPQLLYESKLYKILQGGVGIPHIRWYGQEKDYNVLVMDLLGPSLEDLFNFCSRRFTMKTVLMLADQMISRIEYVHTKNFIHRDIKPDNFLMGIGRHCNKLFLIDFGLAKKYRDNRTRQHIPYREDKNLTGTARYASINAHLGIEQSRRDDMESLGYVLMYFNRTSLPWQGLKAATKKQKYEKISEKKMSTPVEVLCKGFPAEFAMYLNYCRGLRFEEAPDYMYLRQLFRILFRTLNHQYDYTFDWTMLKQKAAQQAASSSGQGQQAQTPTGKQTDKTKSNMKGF
Chain of wild-type Epidermal Growth Factor Receptor (EGFR) (P00533 669-1210): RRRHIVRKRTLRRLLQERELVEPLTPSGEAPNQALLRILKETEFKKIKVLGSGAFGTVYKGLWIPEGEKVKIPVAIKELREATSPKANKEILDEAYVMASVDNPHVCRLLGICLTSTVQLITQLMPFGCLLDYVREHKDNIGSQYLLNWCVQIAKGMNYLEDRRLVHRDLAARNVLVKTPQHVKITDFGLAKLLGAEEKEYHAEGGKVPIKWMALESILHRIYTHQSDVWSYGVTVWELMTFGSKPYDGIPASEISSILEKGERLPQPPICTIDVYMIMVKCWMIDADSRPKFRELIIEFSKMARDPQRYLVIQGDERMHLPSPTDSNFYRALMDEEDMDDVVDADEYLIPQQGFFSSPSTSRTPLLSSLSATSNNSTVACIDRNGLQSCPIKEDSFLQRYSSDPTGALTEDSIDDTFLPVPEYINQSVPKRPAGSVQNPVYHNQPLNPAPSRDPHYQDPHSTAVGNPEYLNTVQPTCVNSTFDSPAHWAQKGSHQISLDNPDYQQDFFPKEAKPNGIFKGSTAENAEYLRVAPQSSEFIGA

On to `CN(C)CCCC(C(=O)Nc1cc(-c2[nH]c3c(c2Nc2ccccc2)C(=O)N(C)CC3)ccn1)c1ccccc1` (single isomer, unassigned; (-)) [Example 59, (−)-N-[4-(3-anilino-5-methyl-4-oxo-4,5,6,7-tetrahydro-1H-pyrrolo[3,2-c]pyridin-2-yl)pyridin-2-yl]-5-(dimethylamino)-2-phenylpentanamide], for which the IC50 on human CSNK1A1 [1] came to 94.3 nM; on human CSNK1A1 [2] it was 7300 nM; at human CSNK1D, 86.2 nM; in assay [3], 16.3 µM.
Regarding `CN1CCc2[nH]c(-c3ccnc(NC(=O)C(CC(F)F)c4ccc(F)cc4)c3)c(Nc3ccccc3)c2C1=O` (single isomer, unassigned; (-)) [Example 62, (−)-N-[4-(3-anilino-5-methyl-4-oxo-4,5,6,7-tetrahydro-1H-pyrrolo[3,2-c]pyridin-2-yl)pyridin-2-yl]-4,4-difluoro-2-(4-fluorophenyl)butanamide], the IC50 at human CSNK1A1 [1] is 21 nM; at human CSNK1A1 [2], 1500 nM; on human CSNK1D it was 29.7 nM; in assay [3] it was over 20 µM.
Regarding `CCC(C(=O)Nc1cc(-c2[nH]c3c(c2Nc2ccccc2)C(=O)N(C)CC3)ccn1)c1ccc(F)cc1` (single isomer, unassigned; (-)) [Example 76, (−)-N-[4-(3-anilino-5-methyl-4-oxo-4,5,6,7-tetrahydro-1H-pyrrolo[3,2-c]pyridin-2-yl)pyridin-2-yl]-2-(4-fluorophenyl)butanamide], the IC50 was 14.4 nM on human CSNK1A1 [1], 506 nM on human CSNK1A1 [2], 17.5 nM on human CSNK1D and over 20 µM in assay [3].
As to `CC(C(=O)Nc1cc(-c2[nH]c3c(c2Nc2ccccc2)C(=O)N(C)CC3)ccn1)c1ccc(Cl)cc1` (single isomer, unassigned; (-)) [Example 80, (−)-N-[4-(3-anilino-5-methyl-4-oxo-4,5,6,7-tetrahydro-1H-pyrrolo[3,2-c]pyridin-2-yl)pyridin-2-yl]-2-(4-chlorophenyl)propanamide], the IC50 on human CSNK1A1 [1] is 24.1 nM; on human CSNK1A1 [2], 2840 nM; on human CSNK1D it was 30.3 nM; in assay [3], over 20 µM.
As for `CC1Cc2[nH]c(-c3ccnc(NC(=O)Cc4ccc(F)cc4)c3)c(Nc3ccccc3)c2C(=O)N1C` (single isomer, unassigned; (-)) [Example 90, (−)-N-{4-[3-anilino-5,6-dimethyl-4-oxo-4,5,6,7-tetrahydro-1H-pyrrolo[3,2-c]pyridin-2-yl]pyridin-2-yl}-2-(4-fluorophenyl)acetamide], the IC50 at human CSNK1A1 [1] was 1.43 nM; at human CSNK1A1 [2], 62.4 nM; on human CSNK1D, 3.79 nM; in assay [3] it was 0.561 µM.
As to `CC(C(=O)Nc1cc(-c2[nH]c3c(c2Nc2ccccc2)C(=O)N(C)C(C)C3)ccn1)c1ccc(F)cc1` (single isomer, unassigned; (-)) [Example 93, (−)-N-{4-[3-anilino-5,6-dimethyl-4-oxo-4,5,6,7-tetrahydro-1H-pyrrolo[3,2-c]pyridin-2-yl]pyridin-2-yl}-2-(4-fluorophenyl)propanamide], the IC50 is 47.2 nM at human CSNK1A1 [1], 3180 nM at human CSNK1A1 [2], 47.3 nM on human CSNK1D and over 20 µM in assay [3].
`CC(C(=O)Nc1cc(-c2[nH]c3c(c2Nc2ccccc2)C(=O)N(C)C(C)C3)ccn1)c1ccc(F)cc1` (single isomer, unassigned; (-)) [Example 94, (−)-(2RS)—N-{4-[(6R*)-3-anilino-5,6-dimethyl-4-oxo-4,5,6,7-tetrahydro-1H-pyrrolo[3,2-c]pyridin-2-yl]pyridin-2-yl}-2-(4-fluorophenyl)propanamide]: the IC50 came to 4.33 nM at human CSNK1A1 [1], 154 nM on human CSNK1A1 [2], 7.02 nM on human CSNK1D and 4.41 µM in assay [3].
